From the NIST ThermoML archive (doi:10.1021/je500696p)

Test: xn = mol fraction of the nth substance listed
Settings: 100 kPa, Liquid, Vibrating tube method

CCCC[N+](C)(C)C.O=S(=O)([N-]S(=O)(=O)C(F)(F)F)C(F)(F)F [butyltrimethylammonium bis(trifluoromethylsulfonyl)imide] + CCO
mass density [kg/m3]
Settings	293.15 K	295.15 K	298.15 K	303.15 K	308.15 K	313.15 K	318.15 K
x2 = 0	1397.1	1395.3	1392.7	1388.3	1384	1379.6	1375.2
x2 = 0.1284	1379.5	1377.7	1375.1	1370.6	1366.2	1361.8	1357.4
x2 = 0.2585	1357.1	1355.3	1352.6	1348.1	1343.7	1339.2	1334.8
x2 = 0.3814	1329.7	1327.8	1325.1	1320.6	1316.1	1311.6	1307.1
x2 = 0.5031	1293.9	1292	1289.3	1284.7	1280.1	1275.6	–
x2 = 0.6487	1232.1	1230.3	1227.5	1222.8	1218.2	1213.6	–
x2 = 0.7823	1142	1140.1	1137.3	1132.7	1128	1123.3	–
x2 = 0.8561	1066.3	1064.5	1061.7	1057.1	1052.4	1047.8	–
x2 = 0.8763	1040.6	1038.8	1036	1031.4	1026.8	1022.1	–
x2 = 0.9039	1000.1	998.3	995.6	991	986.4	981.8	–
x2 = 0.95	916.4	914.6	911.9	907.4	902.9	898.4	–
x2 = 0.9745	860.2	858.4	855.8	851.4	846.9	842.5	–
